Assay results reported in US20230118955A1 (priority 2020, published 2023).
Marks after values point to notes of the source that are not given here.

How the values were obtained:
3CLpro protease = assay type: biochemical, SARS-CoV
SARS-CoV-1 = assay type: cell-based
SARS-CoV-2 = assay type: cell-based
recombinant human furin = assay: Furin cleavage of Site S1 peptide (Peptide 1, Acetyl-SPRRAR-pNA) after incubation with MGO; assay type: biochemical; conditions: 8 mM MGO, 400 μM peptide 1, 5 nM furin
trypsin = assay: Trypsin (surrogate for TMPRSS2) cleavage of Site S2' peptide (Peptide 2, Acetyl-SKPSKR-pNA) after incubation with MGO; assay type: biochemical; conditions: 8 mM MGO, 400 μM peptide 2, 5 nM trypsin

SMILES	inhibition of 3CLpro protease activity (cleavage of pNA substrate) (3CLpro protease)	further results
O=C(O)C(O)Cc1ccccc1 (stereo not drawn) [3-phenyllactic acid]	inhibit activity of 3CLpro protease	
CCO [EtOH, ethanol]		LRV (log10 reduction of virus compared to the virus control) (SARS-CoV-1): 2.8 log10; Virus (CCID50/0.1 mL) (SARS-CoV-1): 1.5 ± 0.2 CCID50/0.1 mL; LRV (log10 reduction of virus compared to the virus control) (SARS-CoV-2): 3.9 log10; Virus (CCID50/0.1 mL) (SARS-CoV-2): <0.7**** CCID50/0.1 mL
CC(=O)C=O [MGO, methylglyoxal]		reduction in pNA liberated (activation of peptide 1 by furin) (recombinant human furin; incubation 3 h): 97%; reduction in pNA liberated (activation of peptide 1 by furin) (recombinant human furin; incubation 4 h): 97%; reduction in pNA liberated (activation of peptide 1 by furin) (recombinant human furin; incubation time 0): 90%; reduction in pNA liberated (activation of peptide 2 by trypsin) (trypsin; incubation 4 h): 88%; reduction in pNA liberated (activation of peptide 2 by trypsin) (trypsin; incubation time 0): 21%
O=c1c(O)c(-c2ccccc2)oc2cc(O)cc(O)c12 [galangin]	inhibit activity of 3CLpro protease	
COc1ccc([C@@H]2CC(=O)c3c(O)cc(O[C@@H]4O[C@H](CO[C@@H]5O[C@@H](C)[C@H](O)[C@@H](O)[C@H]5O)[C@@H](O)[C@H](O)[C@H]4O)cc3O2)cc1O [hesperidin]	inhibit activity of 3CLpro protease	
O=c1c(O)c(-c2ccc(O)cc2)oc2cc(O)cc(O)c12 [kaempferol]	inhibit activity of 3CLpro protease	
O=c1cc(-c2ccc(O)c(O)c2)oc2cc(O)cc(O)c12 [luteolin]	inhibit activity of 3CLpro protease	
O=C(O)/C=C/c1ccc(O)cc1 [p-coumaric acid]	inhibit activity of 3CLpro protease	
O=C1c2c(O)cc(O)cc2O[C@H](c2ccccc2)[C@H]1O [pinobanksin]	inhibit activity of 3CLpro protease	
O=C1C[C@@H](c2ccccc2)Oc2cc(O)cc(O)c21 [pinocembrin]	inhibit activity of 3CLpro protease	
O=c1c(O)c(-c2ccc(O)c(O)c2)oc2cc(O)cc(O)c12 [quercetin]	inhibit activity of 3CLpro protease	
